Laboratory results taken from patent US7662852B2, “Compounds and preparations having antiviral effect” (Lead Chemical Co., Ltd., priority 2003, dated 2010).

Experiments:
HIV-1 IIIB = details: for Anti-HIV Activity EC50: MT-4 cell infected with T-cell tropic strain HIV-1 IIIB, MOI 0.01, 5 days, MTT; for Safety Index S.I. CC50/EC50 / anti-HIV activity in vitro (in words): MT-4 cell, HIV-1 IIIB
Experimental: (§1) For this experiment, human T-cell leukemia virus I (HTLV-I) infected T cell strain, MT-4 cell and T cell leukemia cell strain, MOLT-4 (clone No. 8) cell, HIV-1 continuous infection cell, MOLT-4/IIIB cell were used. The cell was cultured in RPMI-1640 medium (SIGMA) supplemented with 10% inactivated fetal calf plasma (FCS) (MOREGATE, Australia), 100 μg/ml streptomycin and 100 U/ml penicillin G (SIGMA) under a condition of 5% CO2 and 37° C. Subculture was performed every three days by controlling the density to 30×10^4 cells/ml.
HIV-1 IIIB was prepared from the supernatant of MOLT-4/IIIB cell.
MOLT-4/IIIB cell was controlled to a density of 30×10^4 cells/ml and then the culture was started. The cultured liquid was collected three days later, and centrifuged at 3000 rpm for 10 minutes at 4° C. […] These supernatants were passed through 0.45 μm filter. The virus stocks were frozen and stored at −80° C. The amount of virus was adjusted depending on an amount of p24.
• 1) in vitro activity: A phorbol derivative was dissolved in an amount of 1.0 mg in 1.0 ml of DMSO to obtain a concentrated solution.
(§2) The anti-HIV activity of each sample to be tested was evaluated by measuring inhibition activity against cytopathogenicity induced by HIV-1 according to MTTassay. The assay was performed in a triplicate mode, and anti-HIV activity and cytotoxicity were measured simultaneously.
(§3) 96-well plate was used, 10% FCS/RPMI-1640 medium was added in inner 60 wells in an amount of 100 μl/well, and in outer 36 wells in an amount of 200 μl/well in order to prevent evaporation.
(§4) The samples to be tested that were adjusted with RPMI-1640 medium were added in an amount of 25 μl/well in the first lane of the inner 60 wells, and 5-fold stepwise dilution series were prepared by manipulating pipette. In addition, in the last lane, no sample to be tested was added and regarded as control. MT-4 cell suspended in 30×10^4 cells/ml was prepared in two flasks, and the cells in one flask were infected with HIV-1 IIIB in a multiplicity of infection (MOI) of 0.01. The infected or non-infected MT-4 cells were immediately added to samples to be tested in an amount of 100 μl/ml, and cultured under a condition of 5% CO2 and 37° C.
5 days later, the viability of cells was measured based on MTT method by use of Titertek Multiskan.

MT-4 cell = details: non-infected MT-4 cell, 5 days, MTT
Experimental: as §1, §2, §3, §4
5 days later, the viability of cells was measured based on MTT method by use of Titertek Multiskan. MTT adjusted to 7.5 mg/ml with PBS (Ca++, Mg++*free phosphate-buffered saline) was added in an amount of 20 μl/well, and cultured under a condition of 5% CO2 and 37° C., 150 μl of the cultured supernatant was removed and then 100 μl of cytolysis solution (5% (v/v)TritonX-100/acid isopropanol) was added and stirred on a plate mixer for 30 minutes.
The absorbance (reference wavelength: 690 nm) was determined with a plate reader at 540 nm. […] Further, ratio of CC50 to EC50, that is, selective index (SI=CC50/EC50) was calculated.

HIV-1 JRCSF = details: NPB-11 1 ng/ml, PBMC infected with HIV-1 JRCSF, 7 days
Experimental: JRCSF was obtained by culturing 293T cell transfected with 15 μg of virus DNA and collecting the cultured liquid two days later. These supernatants were passed through 0.45 μm filter. The virus stocks were frozen and stored at −80° C. The amount of virus was adjusted depending on an amount of p24.
The infection to peripheral blood mononuclear cells (PBMC) of JRCSF and the evaluation of the anti-HIV activity were performed as follows. 1×10^6 cells/ml of PBMC was inoculated with JRCSF having 20 ng of p24, and the cells were washed 2 hours later. Thereafter, the cells were cultured in a culture liquid containing an agent to be tested for 7 days, and the antiviral activity was detected by measuring p24.
The anti-HIV effect was evaluated by determining the amount of p24 that is one of viral gap proteins and calculating its reduced amount.

[1] = mouse plasma 37° C. 30 min / living organism
Experimental: (§5) • 1) in vitro activity: A phorbol derivative was dissolved in an amount of 1.0 mg in 1.0 ml of DMSO to obtain a concentrated solution. A sample to be tested was prepared by diluting the concentrated solution with a saline or a phosphate buffer to a predetermined concentration. • 2) stability in blood: 1 ml of blood from the abdominal aorta of 6- to 7-week-old BALB/c male mouse was withdrawn in an injector in which 0.1 ml of 3.8% sodium citrate was contained, and centrifuged at 5000 rpm for 10 minutes to obtain a plasma. The plasma was added in a solution to be tested in a proportion of 9:1 to prepare a diluted solution to be tested in a predetermined concentration of 10-fold dilution. The diluted solution was incubated at 37° C. for 30 minutes to prepare a sample to be tested. • 3) in situ activity: the above-mentioned sample to be tested 1) was orally administered to 6- to 7-week-old BALB/c male mouse in a dose of 1 mg/kg, at 20, 40 and 60 minutes after the administration, blood was withdrawn from the abdominal aorta under light anesthetization similarly to those of the 2) above, and the plasma from the blood was used as a sample to be tested.

[2] = 30 min
Experimental: as §5

SMILES	Anti-HIV Activity EC50 (HIV-1 IIIB)	Safety Index S.I. CC50/EC50 (HIV-1 IIIB)	anti-HIV activity in vitro (in words) (HIV-1 IIIB)	Cytotoxicity CC50 (MT-4 cell) [µg/mL]	amount of viral protein p24 (antiviral effect) (HIV-1 JRCSF)	Biological Stability [1]	Heat Stability 56° C., 30′ [2]
CCCCCCCCCC(=O)OC12C(OC(=O)CC)C(C)C3(O)C(C=C(CO)CC4(O)C(=O)C(C)=CC43)C1C2(C)C (centres unmarked) [NPB-5]	>1000 ng ng/ml	125<	lowered in the activity	125			
CCCCCCCCCC(=O)OC12C(OC(=O)CCC)C(C)C3(O)C(C=C(CO)CC4(O)C(=O)C(C)=CC43)C1C2(C)C (centres unmarked) [NPB-9]	>1000 ng ng/ml	125<	lowered in the activity	125			
CCCCCCCCCC(=O)OC12C(OCOC)C(C)C3(O)C(C=C(CO)CC4(O)C(=O)C(C)=CC43)C1C2(C)C (centres unmarked) [NPB-11]	1.7 ng/mL	4066	strong activity	6.9123	little viral protein was detected		
CCCCCCCCCC(=O)OC12C(OC)C(C)C3(O)C(C=C(CO)CC4(O)C(=O)C(C)=CC43)C1C2(C)C (centres unmarked) [NPB-13]	118.9 ng/mL	39	weak activity	4.6173		Stable	
CCCCCCCCCC(=O)OC12C(OCC)C(C)C3(O)C(C=C(CO)CC4(O)C(=O)C(C)=CC43)C1C2(C)C (centres unmarked) [NPB-14]	195.7 ng/mL	17	weak activity	3.3240		Stable	unstable to heat compared with NPB-11
CCCCCCCCCC(=O)OC12C(OC(C)=O)C(C)C3(O)C(C=C(CO)CC4(O)C(=O)C(C)=CC43)C1C2(C)C (centres unmarked) [Sample N-6, reference compound]	1.7 ng/mL	1920	extremely strong anti-HIV activity	3.2638			Stable
